Target: T1, SpIH (Strongylocentrotus purpuratus, UniProt O76977)
T1 sequence (O76977 1-767): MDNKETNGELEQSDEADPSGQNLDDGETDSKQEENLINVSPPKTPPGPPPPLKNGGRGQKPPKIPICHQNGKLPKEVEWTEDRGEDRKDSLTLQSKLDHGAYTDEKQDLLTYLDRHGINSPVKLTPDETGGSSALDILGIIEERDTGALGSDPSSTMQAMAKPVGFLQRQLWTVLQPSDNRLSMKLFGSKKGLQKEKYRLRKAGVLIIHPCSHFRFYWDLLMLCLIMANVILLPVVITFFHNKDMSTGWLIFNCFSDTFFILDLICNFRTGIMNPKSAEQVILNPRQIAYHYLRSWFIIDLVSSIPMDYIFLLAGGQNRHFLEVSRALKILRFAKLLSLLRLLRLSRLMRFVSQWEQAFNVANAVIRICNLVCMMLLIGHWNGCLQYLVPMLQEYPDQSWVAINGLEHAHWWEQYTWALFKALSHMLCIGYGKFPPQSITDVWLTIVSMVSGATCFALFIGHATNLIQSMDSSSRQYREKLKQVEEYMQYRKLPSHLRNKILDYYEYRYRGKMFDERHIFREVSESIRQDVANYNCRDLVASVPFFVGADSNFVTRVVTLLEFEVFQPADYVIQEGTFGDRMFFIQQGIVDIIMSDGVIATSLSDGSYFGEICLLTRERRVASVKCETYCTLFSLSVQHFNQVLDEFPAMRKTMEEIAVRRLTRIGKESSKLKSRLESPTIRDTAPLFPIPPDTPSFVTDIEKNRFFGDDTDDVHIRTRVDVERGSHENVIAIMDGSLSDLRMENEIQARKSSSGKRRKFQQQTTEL
Assay type: cell-based

With `CCCCCCCC(=O)OC[C@H](COP(=O)(O)O[C@H]1[C@H](O)[C@@H](O)[C@H](OP(=O)(O)O)[C@@H](O)[C@H]1O)OC(=O)CCCCCCC` [diC8-PIP] the IC50 was 13.6 µM.

— paper PMC3083228 (The Journal of Biological Chemistry, 2011)
